# In US10766869B2, “Triazoles for the treatment of demyelinating dieases” (Vertex Pharmaceuticals Incorporated, priority 2015, dated 2020):
# Tested on: primary rat mixed cortical cells
# Assay: In vitro myelination assay (MBP positive myelin strands, fold myelin pixels above background)
# Format: cell-based
# Conditions: Rattus norvegicus, relative to baseline of no added compound, read-out: Fold myelin pixels above background; for fold induction at 1 µM: 1.0 μM compound; for fold induction at 10 µM: 10.0 μM compound
# In short: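 P1 rat mixed cortical cultures (neurons, OPCs, oligodendrocytes, astrocytes, microglia) grown 14 days at 37 °C with compound, half-medium refreshed with compound on days 6 and 10. Fixed cells stained for MBP; MBP-positive myelin strand pixels per well quantified by automated imaging, reported as fold over no-compound baseline at 1.0 and 10.0 μM.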
SMILES,fold induction at 1 µM,fold induction at 10 µM
"FC(F)c1cc(Nc2ncn(-c3cccc(C(F)(F)F)c3)n2)nc(N2CCN(C3COC3)CC2)c1 [Compound 680, 4-(difluoromethyl)-6-[4-(oxetan-3-yl)piperazin-1-yl]-N-[1-[3-(trifluoromethyl)phenyl]-1,2,4-triazol-3-yl]pyridin-2-amine]",10 to 100,10 to 100
"Cc1cc(Nc2ncn(-c3ccccc3)n2)cc(Nc2ncn(-c3ccccc3)n2)c1 [Compound 681, 5-methyl-N1,N3-bis(1-phenyl-1,2,4-triazol-3-yl)benzene-1,3-diamine]",10 to 100,1 to 10
"Cc1cc(Nc2ncn(-c3cc(F)cc(F)c3)n2)cc(N2CC(C)(N3CCOCC3)C2)c1 [Compound 683, 1-(3,5-difluorophenyl)-N-[3-methyl-5-(3-methyl-3-morpholino-azetidin-1-yl)phenyl]-1,2,4-triazol-3-amine]",10 to 100,10 to 100
"FC(F)(F)c1cc(Nc2ncn(-c3cccnc3)n2)nc(N2CCN(C3COC3)CC2)c1 [Compound 684, 6-[4-(oxetan-3-yl)piperazin-1-yl]-N-[1-(3-pyridyl)-1,2,4-triazol-3-yl]-4-(trifluoromethyl)pyridin-2-amine]",10 to 100,10 to 100
"CC(F)(F)c1cc(Nc2ncn(-c3cc(F)cc(F)c3)n2)nc(N2CCN(C3COC3)CC2)c1 [Compound 685, 4-(1,1-difluoroethyl)-N-[1-(3,5-difluorophenyl)-1,2,4-triazol-3-yl]-6-[4-(oxetan-3-yl)piperazin-1-yl]pyridin-2-amine]",10 to 100,1 to 10
"Fc1cc(Nc2ncn(-c3cc(F)cc(F)c3)n2)cc(NC2COC2)c1 [Compound 686, N3-[1-(3,5-difluorophenyl)-1,2,4-triazol-3-yl]-5-fluoro-N1-(oxetan-3-yl)benzene-1,3-diamine]",1 to 10,1 to 10
"Cc1cc(Nc2ncn(-c3ccc(C#N)cc3)n2)cc(N2CCN(C3COC3)CC2)c1 [Compound 687, 4-[3-[3-methyl-5-[4-(oxetan-3-yl)piperazin-1-yl]anilino]-1,2,4-triazol-1-yl]benzonitrile]",1 to 10,1 to 10
"Cc1cc(Nc2ncn(-c3cc(F)cc(F)c3)n2)c(F)c(N2CC3(CNC3)C2)c1 [Compound 688, N-[3-(2,6-diazaspiro[3.3]heptan-2-yl)-2-fluoro-5-methyl-phenyl]-1-(3,5-difluorophenyl)-1,2,4-triazol-3-amine]",1 to 10,≤ 1
"Cc1cc(Nc2ncn(-c3cccc(C(F)F)c3)n2)nc(NC2CCOC2)c1 (centres unmarked) [Compound 689, N6-[1-[3-(difluoromethyl)phenyl]-1,2,4-triazol-3-yl]-4-methyl-N2-tetrahydrofuran-3-yl-pyridine-2,6-diamine]",1 to 10,1 to 10
"Cc1cc(Nc2ncn(-c3cc(F)cc(F)c3)n2)cc(N2CC(C(=O)N3CCOCC3)C2)c1 [Compound 690, [1-[3-[[1-(3,5-difluorophenyl)-1,2,4-triazol-3-yl]amino]-5-methyl-phenyl]azetidin-3-yl]-morpholino-methanone]",1 to 10,10 to 100
"Cc1cc(Nc2ncn(-c3cc(F)cc(F)c3)n2)cc(N2CC3CCC(C2)O3)c1 [Compound 692, 1-(3,5-difluorophenyl)-N-[3-methyl-5-(8-oxa-3-azabicyclo[3.2.1]octan-3-yl)phenyl]-1,2,4-triazol-3-amine]",10 to 100,10 to 100
"COc1cc(Nc2ncn(-c3cccc(C(F)F)c3)n2)cc(N2CCN(C3COC3)CC2)c1 [Compound 693, 1-[3-(difluoromethyl)phenyl]-N-[3-methoxy-5-[4-(oxetan-3-yl)piperazin-1-yl]phenyl]-1,2,4-triazol-3-amine]",1 to 10,≤ 1
"Cc1cc(Nc2ncn(-c3cc(F)cc(F)c3)n2)cc(N2C3COCC2C3)c1 [Compound 694, 1-(3,5-difluorophenyl)-N-[3-methyl-5-(3-oxa-6-azabicyclo[3.1.1]heptan-6-yl)phenyl]-1,2,4-triazol-3-amine]",10 to 100,≤ 1
"Cc1cc(Nc2ncn(-c3ccc(F)cc3)n2)cc(N2CCN(C3(C)COC3)CC2)c1 [Compound 695, 1-(4-fluorophenyl)-N-[3-methyl-5-[4-(3-methyloxetan-3-yl)piperazin-1-yl]phenyl]-1,2,4-triazol-3-amine]",1 to 10,1 to 10
"Cc1cc(Nc2ncn(-c3cc(F)cc(F)c3)n2)c(C)c(N2CCN(C3COC3)CC2)c1 [Compound 697, 1-(3,5-difluorophenyl)-N-[2,5-dimethyl-3-[4-(oxetan-3-yl)piperazin-1-yl]phenyl]-1,2,4-triazol-3-amine]",1 to 10,10 to 100
"Cc1cc(Nc2ncn(-c3ccc(F)c(F)c3)n2)cc(OCCn2cccn2)c1 [Compound 698, 1-(3,4-difluorophenyl)-N-[3-methyl-5-(2-pyrazol-1-ylethoxy)phenyl]-1,2,4-triazol-3-amine]",10 to 100,10 to 100

SMILES,fold induction at 1 µM,fold induction at 10 µM
"Cc1cc(Nc2cc(C)[nH]n2)cc(Nc2ncn(-c3ccccc3)n2)c1 [Compound 699, 5-methyl-N3-(5-methyl-1H-pyrazol-3-yl)-N1-(1-phenyl-1,2,4-triazol-3-yl)benzene-1,3-diamine]",1 to 10,≤ 1
"Fc1cc(F)cc(-n2cnc(Nc3cc(N4CCN(C5COC5)CC4)cc(N4CC(N5CCOCC5)C4)c3)n2)c1 [Compound 701, 1-(3,5-difluorophenyl)-N-[3-(3-morpholinoazetidin-1-yl)-5-[4-(oxetan-3-yl)piperazin-1-yl]phenyl]-1,2,4-triazol-3-amine]",10 to 100,≤ 1
"Cc1cc(Nc2ncn(-c3cc(F)cc(F)c3)n2)nc(N2CCN(C(C)(C)C)CC2)c1 [Compound 702, 6-(4-tert-butylpiperazin-1-yl)-N-[1-(3,5-difluorophenyl)-1,2,4-triazol-3-yl]-4-methyl-pyridin-2-amine]",10 to 100,10 to 100
"Cc1cc(Nc2ncn(-c3cc(F)cc(F)c3)n2)cc(OC2CCOC2)c1 (centres unmarked) [Compound 703, 1-(3,5-difluorophenyl)-N-(3-methyl-5-tetrahydrofuran-3-yloxy-phenyl)-1,2,4-triazol-3-amine]",10 to 100,1 to 10
"Cc1cc(Nc2ncn(-c3ccccc3)n2)cc(N2CC(N3CCOCC3)C2)c1 [Compound 704, N-[3-methyl-5-(3-morpholinoazetidin-1-yl)phenyl]-1-phenyl-1,2,4-triazol-3-amine]",10 to 100,≤ 1
"Fc1cc(F)cc(-n2cnc(Nc3cc(Cl)cc(NC4COC4)c3)n2)c1 [Compound 705, 5-chloro-N3-[1-(3,5-difluorophenyl)-1,2,4-triazol-3-yl]-N1-(oxetan-3-yl)benzene-1,3-diamine]",10 to 100,1 to 10
"Cc1cc(Nc2ncn(-c3cc(F)cc(F)c3)n2)cc(OCC2CC(F)(F)C2)c1 [Compound 706, N-[3-[(3,3-difluorocyclobutyl)methoxy]-5-methyl-phenyl]-1-(3,5-difluorophenyl)-1,2,4-triazol-3-amine]",1 to 10,1 to 10
"N#Cc1cc(N2CCN(C3COC3)CC2)cc(Nc2ncn(-c3cc(F)cc(F)c3)n2)n1 [Compound 707, 6-[[1-(3,5-difluorophenyl)-1,2,4-triazol-3-yl]amino]-4-[4-(oxetan-3-yl)piperazin-1-yl]pyridine-2-carbonitrile]",≤ 1,≤ 1
"Cc1cc(Nc2ncn(-c3cc(F)cc(F)c3)n2)cc(C2(C)CN(C3COC3)CCO2)c1 (centres unmarked) [Compound 708, 1-(3,5-difluorophenyl)-N-[3-methyl-5-[2-methyl-4-(oxetan-3-yl)morpholin-2-yl]phenyl]-1,2,4-triazol-3-amine]",1 to 10,≤ 1
"Cc1cc(Nc2ncn(-c3cc(F)cc(F)c3)n2)cc(N2CCN(C(C)(C)C)CC2)c1 [Compound 709, N-[3-(4-tert-butylpiperazin-1-yl)-5-methyl-phenyl]-1-(3,5-difluorophenyl)-1,2,4-triazol-3-amine]",1 to 10,1 to 10
"COc1ccc(-n2cnc(Nc3cc(C)cc(N4CCN(C5COC5)CC4)c3)n2)cc1 [Compound 710, 1-(4-methoxyphenyl)-N-[3-methyl-5-[4-(oxetan-3-yl)piperazin-1-yl]phenyl]-1,2,4-triazol-3-amine]",10 to 100,≤ 1
"Cc1cc(Nc2ncn(-c3cc(F)cc(F)c3)n2)cc(N2CC(C(=O)N(C)C)C2)c1 [Compound 711, 1-[3-[[1-(3,5-difluorophenyl)-1,2,4-triazol-3-yl]amino]-5-methyl-phenyl]-N,N-dimethyl-azetidine-3-carboxamide]",10 to 100,1 to 10
"FC(F)(F)c1cc(Nc2ncn(-c3cnccn3)n2)nc(N2CCN(C3COC3)CC2)c1 [Compound 712, 6-[4-(oxetan-3-yl)piperazin-1-yl]-N-(1-pyrazin-2-yl-1,2,4-triazol-3-yl)-4-(trifluoromethyl)pyridin-2-amine]",1 to 10,1 to 10
"OCc1cc(Nc2ncn(-c3ccc(F)c(F)c3)n2)nc(N2CCN(C3COC3)CC2)c1 [Compound 713, [2-[[1-(3,4-difluorophenyl)-1,2,4-triazol-3-yl]amino]-6-[4-(oxetan-3-yl)piperazin-1-yl]-4-pyridyl]methanol]",10 to 100,10 to 100
"Cc1cc(Nc2ncn(-c3ccc(F)c(F)c3)n2)cc(OCc2ccn(C)n2)c1 [Compound 714, 1-(3,4-difluorophenyl)-N-[3-methyl-5-[(1-methylpyrazol-3-yl)methoxy]phenyl]-1,2,4-triazol-3-amine]",10 to 100,10 to 100
